# Assay results from patent EP4650362A1, “NEUROPROTECTIVE PSD-95 POLYPEPTIDE INHIBITOR AND USE THEREOF” (Beijing Tuo Jie Biopharmaceutical Co. Ltd., priority 2023, dated 2024).
# Read-outs that look alike come from different tables or passages of the source. No end group written: not given here.
# What was measured:
# [1] = test system: human whole blood; test: hemolysis risk test in human whole blood; format: cell-based; conditions: for Hemolysis rate (%): Human, 37 °C 1 h
# Protocol: This test example assessed whether a polypeptide compound causes hemolytic reactions in rat, rabbit, and human whole blood.
# Preparation of red blood cell suspension: 100 µL of fresh whole blood was collected, and 900 µL of 1× PBS solution was then added. The mixture was shaken on a plate shaker at 30 rpm for 5 min and then centrifuged at 1000 g for 5 min, and the supernatant was discarded. The above washing step was repeated until the supernatant no longer appeared red. The suspension was set aside for later use.
# Preparation of test polypeptide solutions: An appropriate amount of 1× PBS solution was added to a powdered polypeptide, and the polypeptide was dissolved to form a standard stock solution. […] Meanwhile, blank 1× PBS was used as a negative control, and a 1× PBS solution containing 0.1% Triton X-100 was used as a positive control.
# Incubation: A test solution (500 µL) was added to the red blood cell suspension, and then the mixture was well shaken on a plate shaker at 30 rpm for 5 min, incubated at 37 °C for 1 h, and centrifuged at 1000 g for 5 min.
# 100 µL of the supernatant was transferred to a single well of a microplate. The absorbance at 540 nm was measured using a SpectraMax M5 microplate reader, and data analysis was performed using GraphPad Prism 9. The hemolysis rate (%) was calculated using the formula: (test sample absorbance - negative control absorbance) / (positive control absorbance - negative control absorbance) × 100%. A rate of less than 5% indicates the absence of hemolysis, while a rate of greater than 5% indicates the presence of hemolysis. Table 3. Testing of the hemolysis risk of the polypeptide compound
# [2] = nephrotoxicity in rats (blood urea nitrogen, serum creatinine); format: in vivo, SD rats; conditions: for Blood urea nitrogen (BUN) levels / Serum creatinine (Crea) levels: rat serum
# Protocol: With male SD rats as test animals, the nephrotoxicity of a polypeptide compound administered via single intravenous bolus injection in rats (serum) was studied.
# This test was performed synchronously with Test Examples 3.6, with blood collection time points set as follows: before administration (day 0), and days 2, 4, and 7 post-administration. At each time point, 0.3 mL of blood was collected, transferred to a centrifuge tube, and left to stand at room temperature for 1 h. Then the whole blood sample was centrifuged at 4 °C at 4000 g for 5 min, and a serum sample was obtained by separation and cryopreserved at -80 °C.
# The blood urea nitrogen (BUN) and serum creatinine levels at each time point were determined through commercially available kits. For blood urea nitrogen, the urease continuous monitoring method was used. For serum creatinine, the sarcosine oxidase method was used. The sample was thawed in a refrigerator at 2 to 8 °C and vortexed for thorough mixing, and 100 µL of the sample was pipetted into a sample cup. The cup was placed in the sample position of a biochemistry analyzer, and assays were performed according to the instructions of the kits. The experimental results are shown in Tables 8-1 and 8-2, FIG. 5A, and FIG. 5B.
# [3] = pharmacokinetic study in beagle dogs, single intravenous infusion; format: in vivo; conditions: for AUClast/dose / T1/2 / AUC(0-inf) / Cmax / MRT / Tmax: beagle dogs, intravenous infusion over 10 min, 1.2 nmol/g; for Tmax: read-out: Tmax
# Protocol: With standard beagle dogs as test animals, the pharmacokinetic behavior of a polypeptide compound administered via single intravenous infusion in beagle dogs (plasma) was studied.
# For polypeptide compound 22, two dose groups were set: 1.2 nmol/g and 0.4 nmol/g. For NA-1, one dose group was set: 1.2 nmol/g. Each group consisted of four animals, with an equal number of males and females. The polypeptide compound was dissolved in 1× PBS, and the polypeptide compound solution was then administered via intravenous infusion over 10 min. The blood collection time points were as follows: before infusion (0 h), 5 min after the start of bolus injection, and 0 min, 2 min, 5 min, 10 min, 15 min, 30 min, 1 h, 2 h, 4 h, 8 h, and 24 h after the end of bolus injection. At each time point, 0.5 mL of blood was collected and transferred to an EDTA-K2 anticoagulation centrifuge tube. Meanwhile, 50 µL of a protease inhibitor was added. After thorough mixing, the mixture was centrifuged at 2000 g for 10 min (4 °C), and the plasma was separated within 1 h, aliquoted into cryopreservation tubes, and stored at -60 to -90 °C. The blood collection-to-centrifugation process was performed under ice bath conditions.
# The plasma concentrations of the test compounds were determined using the method in Test Example 3.4.3. Plasma concentration-time curves were plotted, and the pharmacokinetic parameters were calculated using PKSolver software.
# [4] = test system: histamine release; test: ability to induce histamine release in beagle dogs (plasma); format: in vivo; conditions: beagle dog plasma, 1.2 nmol/g
# Protocol: With beagle dogs as test animals, the ability of a polypeptide compound administered via single intravenous infusion to induce histamine release in dogs (plasma) was studied.
# This test was performed synchronously with Test Examples 3.9, with four animals per group and blood collection time points set as follows: before administration (0 h), and 2 min, 5 min, and 15 min after the end of intravenous infusion.
# Sample analysis and data processing were performed with reference to the methods in 3.7.3. Table 10. Histamine levels at different time points
# [5] = 3 nmol/g, day 0 (before administration)
sequence,measurement,setting,value
"YGRKKRRQRRRKLSSIESDV [NA-1, YGRKKRRQR RRKLSSIESDV, reference compound]",Hemolysis rate (%),[1]; 1.0 µM,-0.52%
same,Hemolysis rate (%),[1]; 2.5 µM,-0.59%
same,Hemolysis rate (%),[1]; 5.0 µM,-0.49%
same,Hemolysis rate (%),[1]; 10 µM,-0.54%
same,Hemolysis rate (%),[1]; 25 µM,-0.53%
same,Hemolysis rate (%),[1]; 50 µM,0.06%
same,hemolysis rates,"[1]; human whole blood, concentration range of 1 to 50 µM",less than 5%
same,Blood urea nitrogen (BUN) levels,[2]; [5],10.8 ± 1.9 mg/dL
same,Serum creatinine (Crea) levels,[2]; [5],0.198 ± 0.007 mg/dL
same,Blood urea nitrogen (BUN) levels,"[2]; 3 nmol/g, day 2",14.8 ± 1.9 mg/dL
same,Serum creatinine (Crea) levels,"[2]; 3 nmol/g, day 2",0.215 ± 0.003 mg/dL
same,Blood urea nitrogen (BUN) levels,"[2]; 3 nmol/g, day 4",17.2 ± 3.6 mg/dL
same,Serum creatinine (Crea) levels,"[2]; 3 nmol/g, day 4",0.208 ± 0.008 mg/dL
same,Blood urea nitrogen (BUN) levels,"[2]; 3 nmol/g, day 7",19 ± 3.3 mg/dL
same,Serum creatinine (Crea) levels,"[2]; 3 nmol/g, day 7",0.209 ± 0.009 mg/dL
same,increase of blood urea nitrogen level compared to before administration,"[2]; rats, 3 nmol/g, day 4 and day 7",≤ 2 fold
same,renal safety concerns,"[2]; rats, within the tested concentration range, 7-day monitoring period",neither NA-1 nor polypeptide compound 14 caused significant renal safety concerns
same,AUClast/dose,[3]; Female,284
same,T1/2,[3]; Female,2.4 min
same,AUClast/dose,[3]; Male,363
same,T1/2,[3]; Male,3 min
same,half-life,"[3]; both sexes, beagle, dog, in vivo, iv, dogs, same dose (1.2 nmol/g), read-out: average T1/2 (converted)",2.7 min
same,AUC(0-inf),"[3]; dog, in vivo, Female",855 ng·h/mL
same,Cmax,"[3]; dog, in vivo, Female",5030 ng/mL
same,MRT,"[3]; dog, in vivo, Female",9 min
same,Tmax,"[3]; dog, in vivo, Female",7.8 min
same,AUC(0-inf),"[3]; dog, in vivo, Male",1100 ng·h/mL
same,Cmax,"[3]; dog, in vivo, Male",6780 ng/mL
same,MRT,"[3]; dog, in vivo, Male",9.6 min
same,Tmax,"[3]; dog, in vivo, Male",10.2 min
same,Histamine levels (sums of detected histamine and 3-methylhistamine),[4]; 0 min (before administration),7.08±3.15
same,Histamine levels (sums of detected histamine and 3-methylhistamine),[4]; 2 min after the end of intravenous infusion,40.47±64.51
same,Histamine levels (sums of detected histamine and 3-methylhistamine),[4]; 5 min after the end of intravenous infusion,73.95±131.85
same,Histamine levels (sums of detected histamine and 3-methylhistamine),[4]; 15 min after the end of intravenous infusion,68.80±124.89
